Results: the supplement of paper PMC13380429

Key:
Settings in all cases: 72 h
[1] = system: U2OS; test: relative viability EC50 (midpoint between 100% and the lowest measured viability); higher = less toxic
[2] = system: Vero E6; test: as above
[3] = system: HepG2; test: as above
[4] = system: Caco-2; test: as above
[5] = system: Calu-3; test: as above
[6] = system: U2OS; test: cell viability relative to DMSO; higher = less toxic
[7] = system: Vero E6; test: as above
[8] = system: HepG2; test: as above
[9] = system: Caco-2; test: as above
[10] = system: Calu-3; test: as above
[11] = system: U2OS; test: drug sensitivity score (DSS) for viability; higher = more toxic; extreme values may be limits of the assay
[12] = system: Vero E6; test: as above
[13] = system: HepG2; test: as above
[14] = system: Caco-2; test: as above
[15] = system: Calu-3; test: as above

SMILES | relative viability EC50 [1] [µM] | relative viability EC50 [2] [µM] | relative viability EC50 [3] [µM] | relative viability EC50 [4] [µM] | relative viability EC50 [5] [µM] | cell viability ([6]; 1 nM) [%] | cell viability ([6]; 10 nM) [%] | cell viability ([6]; 100 nM) [%] | cell viability ([6]; 1000 nM) [%] | cell viability ([6]; 10000 nM) [%] | cell viability ([7]; 1 nM) [%] | cell viability ([7]; 10 nM) [%] | cell viability ([7]; 100 nM) [%] | cell viability ([7]; 1000 nM) [%] | cell viability ([7]; 10000 nM) [%] | cell viability ([8]; 1 nM) [%] | cell viability ([8]; 10 nM) [%] | cell viability ([8]; 100 nM) [%] | cell viability ([8]; 1000 nM) [%] | cell viability ([8]; 10000 nM) [%] | cell viability ([9]; 1 nM) [%] | cell viability ([9]; 10 nM) [%] | cell viability ([9]; 100 nM) [%] | cell viability ([9]; 1000 nM) [%] | cell viability ([9]; 10000 nM) [%] | cell viability ([10]; 1 nM) [%] | cell viability ([10]; 10 nM) [%] | cell viability ([10]; 100 nM) [%] | cell viability ([10]; 1000 nM) [%] | cell viability ([10]; 10000 nM) [%] | drug sensitivity score [11] | drug sensitivity score [12] | drug sensitivity score [13] | drug sensitivity score [14] | drug sensitivity score [15]
O=C(c1ccc(F)cc1)C1CCN(CCn2c(=O)[nH]c3ccccc3c2=O)CC1 [ketanserin] | > 10 | > 10 | > 10 | > 10 | > 10 | 90 | 98.3 | 96.1 | 103 | 106 | 96.9 | 94.9 | 97.8 | 101 | 103 | 102 | 95 | 97.3 | 102 | 97.2 | 93.1 | 100 | 95.6 | 99.7 | 96.9 | 96.2 | 95.8 | 90.3 | 92.9 | 102 | 0 | 0 | 0 | 0 | 0
CN[C@H](C(=O)N[C@H](C(=O)N(C)[C@H](/C=C(\C)C(=O)O)C(C)C)C(C)(C)C)C(C)(C)c1ccccc1 [taltobulin] | 0.0021 | 0.0044 | 0.0012 | 0.0011 | 0.0037 | 73.8 | 31.8 | 17.3 | 18.5 | 17.7 | 88.5 | 39.6 | 25.2 | 17.9 | 18.1 | 73.5 | 28.9 | 28.6 | 34.8 | 33.1 | 68.3 | 45.6 | 34.3 | 35 | 35.9 | 82.8 | 58.4 | 46.7 | 39.6 | 38.8 | 36.3 | 33.4 | 35 | 29.8 | 24.3
C[C@H](CCC(=O)O)[C@H]1CC[C@H]2[C@@H]3[C@H](O)C[C@@H]4C[C@H](O)CC[C@]4(C)[C@H]3C[C@H](O)[C@]12C [cholic-acid] | > 10 | > 10 | > 10 | > 10 | > 10 | 97.3 | 100 | 93.5 | 102 | 96.5 | 102 | 102 | 100 | 100 | 99.4 | 112 | 97.5 | 96.3 | 94.2 | 102 | 93.3 | 92.3 | 95.3 | 100 | 93 | 87 | 91.1 | 88 | 99 | 96.9 | 0 | 0 | 0 | 0 | 0
COc1ccc(Cl)c(Nc2ncnc3cc(OCC4CCN(C)CC4)c(OC)cc23)c1 | > 10 | 1.49 | > 10 | – | 1.42 | 104 | 97.2 | 103 | 95.8 | 77.7 | 95.5 | 99.3 | 89.7 | 76.6 | 27.3 | 99.1 | 105 | 90.6 | 96.6 | 87.7 | 93 | 108 | 99.1 | 89.9 | 68.3 | 94.5 | 102 | 89.7 | 75 | 28.5 | 1.4 | 6.7 | 0 | 2.9 | 6.7
O=C1NC(=O)/C(=C/c2ccc(-c3ccc(F)cc3O)o2)S1 | > 10 | > 10 | > 10 | – | > 10 | 103 | 101 | 91 | 104 | 91.2 | 102 | 100 | 99.3 | 100 | 81.2 | 96.2 | 96.2 | 95.9 | 96.6 | 106 | 94 | 103 | 96.3 | 105 | 72.5 | 116 | 109 | 102 | 98.2 | 77 | 0 | 0.5 | 0 | 0.9 | 1
O=C(NC1(c2ccccc2)CC1)c1c(CN2CCC(N3CCCCC3)CC2)c(-c2cccc(C(F)(F)F)c2)nc2cc(Br)ccc12 | 2.81 | 3.09 | 3.4 | – | 2.02 | 98.5 | 95.1 | 101 | 96 | 15.7 | 93.3 | 98.3 | 102 | 99.3 | 38.4 | 93.6 | 101 | 104 | 102 | 45.4 | 95.4 | 88.3 | 112 | 98.8 | 55.2 | 97.1 | 90.2 | 96 | 85.8 | 1.2 | 5.2 | 3.4 | 2.7 | 2.5 | 7.8
c1cc(-c2cnn3cc(-c4ccc(OCCN5CCCCC5)cc4)cnc23)ccn1 [dorsomorphin] | 2.31 | 2.9 | 2.52 | – | 3.02 | 102 | 104 | 95.9 | 91.4 | 16.7 | 98.5 | 94.5 | 102 | 96.8 | 9.1 | 103 | 103 | 90.5 | 93.1 | 11.6 | 96.8 | 96.6 | 89.4 | 95.1 | 56.5 | 102 | 95.6 | 99.4 | 98.9 | 47.4 | 6 | 5.5 | 6 | 3 | 2.9
